Laboratory results as given in patent publication US4007184A, “Substituted alkyl esters of quinoxaline-di-N-oxide-2-carboxylic acid” (Pfizer Inc., priority 1975, dated 1977).
In brackets after ≈: the same amount, converted by molar mass. Structures can show the parent of a compound that is named as a salt.

Assays:
Escherechia coli [1] = experiment: in vivo antibacterial activity against acute infections in mice, oral; conditions: for responders at 200 mg/kg / responders at 50 mg/kg: Escherichia coli, in Mus musculus, po, 96 h; for responders at 200 mg/kg: read-out: percent animals which survived, E. coli, *200 mg./kg., mice, oral, 200 mg./kg. (footnote *); for responders at 50 mg/kg: read-out: percent animals which survived, E. coli, **50 mg./kg., mice, oral, 50 mg./kg.; for percent animals which survived, E. coli 100 / percent animals which survived, E. coli 25: mice, oral; for percent animals which survived, E. coli 100: 100 mg./kg.; for percent animals which survived, E. coli 25: 25 mg./kg.
Method: (§1) The in vivo efficacy of the compounds of the instant invention is determined by the antibacterial activity against acute infections in mice. The acute experimental infections are produced by the intraperitoneal inoculation of standardized culture suspended in either 5% hog gastric mucin or broth.
(§2) Stock cultures of test organisms are normally maintained on slants or in liquid medium. When not routinely used they are maintained at refrigerator temperature or in a lyophilized state. When it becomes to use a culture in animal protection tests the culture is suspended in a volume of saline or broth, and the density of the suspension is measured by a photo-electric colorimeter. From this stock, ten-fold dilutions are prepared. Each dilution is inoculated into a series of mice in order to determine the LD100, the LD100 being the lowest concentration of organisms required to produce 100 percent deaths. […] This means that we are using about 10 LD100 or 10 times the minimum dose required to kill mice. Such a test would also include the use of control animals which receive an inoculum of 10^^-4, 10^^-5 and possibly 10^^-6. These dilutions are included as a check on possible variation in virulence which can occur. Having previously determined, through the virulence titration, that 10^^-4 was the maximum dilution that will kill we naturally expect these animals to die, usually within 24 hours.
(§3) Each organism has its own standardized inoculum level. Some, such as Staphylococcus, may be used at 10^^-1, while others like Streptococcus require weekly animal passage in order to maintain virulence.
(§4) When evaluating an antibiotic for its effectiveness after a single dose, the dose is usually administered 0.5 hour after inoculating the mice with the lethal concentration of organisms. In this type of treatment schedule surviving mice are usually held for 4 days after the treatment and the percent alive is calculated.

[2] = test system: Salmonella cholerasuis var. kunzendorf; experiment: protection against systemic challenge infection in swine; assay type: in vivo; conditions: intramuscular, day 10, placebo 83
Method: Young, 6-8 week old pigs are conditioned for 14 days in isolation rooms and maintained during the entire study on a basal ration consisting of ground yellow corn (78.4%), soybean meal (15%), alfalfa meal (2%), meat bone scraps (2.5%), limestone (0.4%), dicalcium phosphate (0.65%), iodized salt (0.5%), Vitamin pre-mix PPM-5 (0.5%), quadruple delamix (0.05%) and zinc carbonate (7.8 g./100 lbs. mix). All the pigs, which are divided into groups of six, are inoculated on day 0 with 4 ml. (approximately 2.0 × 10^8 organisms) of the stock inoculating suspension. Treatment with the quinoxaline-di-N-oxides of the present invention is carried out on day 0 and day 1 by intramuscular injection at 12 hour intervals at doses of 2.5 and 5 mg./kg. On day 10 the percent mortality in each group is calculated.

Escherechia coli [3] = experiment: in vitro activity (MIC), two-fold serial dilution technique; assay type: cell-based; conditions: Escherichia coli, 37° C., approximately 24 hours, method gives concentrations as mcg. of compound per ml., read-out: MIC (Minimal Inhibitory Concentration) E. coli
Staphylococcus aureus = experiment: as above; assay type: cell-based; conditions: 37° C., approximately 24 hours, method gives concentrations as mcg. of compound per ml., read-out: MIC (Minimal Inhibitory Concentration) S. aureus
Streptococcus pyogenes = experiment: in vivo antibacterial activity against acute infections in mice, oral; conditions: for percent animals which survived, S. pyogenes 50: 50 mg./kg.; for percent animals which survived, S. pyogenes 200: 200 mg./kg.
Method: as §1, §2, §3, §4

[4] = growth promotion in swine; assay type: in vivo; conditions: 50 g./ton of feed, 28 days; for Weight Gain Index: control = 100
Method: In practice, growth promotion is determined in swine, for instance, by the method wherein young pigs from 5-6 weeks of age and averaging 21.5 lbs. initial body weight are maintained on an ad libitum consumption of water and feed formulation consisting of ground yellow corn (58.1%), soybean meal (19.6%), alfalfa meal (2.0%), dried skim milk (5.0%), dried whey (10.0%), stabilized animal fat (2.5%), limestone (0.6%), dicalcium phosphate (1.1%), iodized salt (0.5%), vitamin premix PPM-5 (0.5%), quadruple delamix (0.05%), and zinc carbonate (156 g./2000 lbs. mix). The pigs are divided into groups of 32 pigs each and are held for a pre-experimental period of 3 days prior to starting the experiment. The quinoxaline-di-N-oxides of the present invention are added to the feed at a ratio of 50 g. of compound per ton of feed. After 28 days the efficacy of said added compounds on growth promotion is measured by a comparison of the growth in terms of weight gain of the treated animals with the untreated control group, which is arbitrarily assigned a weight gain Index of 100. For example, if a compound effects a growth 23% greater than the control group (with an Index of 100) it would be assigned a value of 123, etc.
Employing the previously described procedure for determining growth promotion in animals, the following quinoxaline-di-N-oxides were tested at 50 g./ton of feed in swine for a period of 28 days and provided the following results: […]

| Compound | responders at 200 mg/kg (Escherechia coli [1]) [%] | responders at 50 mg/kg (Escherechia coli [1]) [%] | MIC (Escherechia coli [3]) [µg/mL] | MIC (Staphylococcus aureus) [µg/mL] | other results |
| --- | --- | --- | --- | --- | --- |
| Cc1c(C(=O)OCCOC(=O)CCl)[n+]([O-])c2ccccc2[n+]1[O-] | 100 | 100 |  |  |  |
| Cc1c(C(=O)OCCOC(=O)C[N+](C)(C)C)[n+]([O-])c2ccccc2[n+]1[O-] | 90 | 40 |  |  |  |
| CCCCCCCCCC(=O)OCCOC(=O)c1c(C)[n+]([O-])c2ccccc2[n+]1[O-] | 100 | 70 |  |  |  |
| CCOC(=O)OCCOC(=O)c1c(C)[n+]([O-])c2ccccc2[n+]1[O-] |  |  |  |  | percent animals which survived, E. coli 100 (Escherechia coli [1]): 30% |
| Cc1c(C(=O)OCCOC(=O)OCC(C)C)[n+]([O-])c2ccccc2[n+]1[O-] | 90 |  |  |  |  |
| CCC(=O)OCCOC(=O)c1c(C)[n+]([O-])c2ccccc2[n+]1[O-] | 90 | 80 |  |  |  |
| CCCC(=O)OCCOC(=O)c1c(C)[n+]([O-])c2ccccc2[n+]1[O-] | 90 | 80 |  |  |  |
| CCCCC(=O)OCCOC(=O)c1c(C)[n+]([O-])c2ccccc2[n+]1[O-] | 100 | 60 |  |  |  |
| CCCCCC(=O)OCCOC(=O)c1c(C)[n+]([O-])c2ccccc2[n+]1[O-] | 90 | 0 |  |  |  |
| CCCCCCC(=O)OCCOC(=O)c1c(C)[n+]([O-])c2ccccc2[n+]1[O-] | 100 | 10 |  |  |  |
| CCCCCCCC(=O)OCCOC(=O)c1c(C)[n+]([O-])c2ccccc2[n+]1[O-] | 100 | 50 |  |  |  |
| Cc1c(C(=O)OCCOC(=O)CCCC(=O)O)[n+]([O-])c2ccccc2[n+]1[O-] | 90 | 50 |  |  |  |
| CC(=O)OCCOC(=O)c1c(C)[n+]([O-])c2ccccc2[n+]1[O-] [3-Methyl-2-quinoxalinecarboxylic acid, 2-(acetyloxy)ethyl ester, 1,4-dioxide] |  |  |  |  | % Mortality ([2]; 2.5 mg./kg. × 4 at 12 hour intervals): 67%; % Mortality ([2]; 5.0 mg./kg. × 4 at 12 hour intervals): 17% |
| CC1(C)S[C@@H]2[C@H](NC(=O)Cc3ccccc3)C(=O)N2[C@H]1C(=O)O [Benzylpenicillin (K Salt), Benzylpenicillin, reference compound] |  |  | > 100 | 0.156 |  |
| CCN(CC)CCOC(=O)c1c(C)[n+]([O-])c2ccccc2[n+]1[O-].Cl [H (CH2)2 N(C2 H5)2.HCl, 3-Methyl-2-quinoxalinecarboxylic acid, 2-(diethylamino)ethyl ester, 1,4-dioxide hydrochloride] |  |  | 12.5 | 100 |  |
| Cc1c(C(=O)OCCN(C)C)[n+]([O-])c2ccccc2[n+]1[O-].Cl [H (CH2)2 N(CH3)2.HCl, 3-Methyl-2-quinoxalinecarboxylic acid, 2-(dimethylamino)ethyl ester, 1,4-dioxide hydrochloride] |  |  | 6.25 | 100 | percent animals which survived, E. coli 25 (Escherechia coli [1]): 40%; percent animals which survived, E. coli 100 (Escherechia coli [1]): 100%; percent animals which survived, S. pyogenes 50 (Streptococcus pyogenes): 20%; percent animals which survived, S. pyogenes 200 (Streptococcus pyogenes): 70% |
| CCN(C)CCOC(=O)c1c(C)[n+]([O-])c2ccccc2[n+]1[O-].Cl [H (CH2)2 N(CH3)C2 H5.HCl, 3-Methyl-2-quinoxalinecarboxylic acid, 2-(methylethylamino)-ethyl ester, 1,4-dioxide hydrochloride] |  |  | 12.5 | 100 | percent animals which survived, E. coli 25 (Escherechia coli [1]): 0%; percent animals which survived, E. coli 100 (Escherechia coli [1]): 80%; percent animals which survived, S. pyogenes 50 (Streptococcus pyogenes): 60%; percent animals which survived, S. pyogenes 200 (Streptococcus pyogenes): 100% |
| Cc1c(C(=O)OCCN)[n+]([O-])c2ccccc2[n+]1[O-] [H (CH2)2 NH2.HCl, 3-Methyl-2-quinoxalinacarboxylic acid, 2-aminoethyl ester, 1,4-dioxide hydrochloride] |  |  |  |  | percent animals which survived, E. coli 25 (Escherechia coli [1]): 100%; percent animals which survived, S. pyogenes 50 (Streptococcus pyogenes): 30%; percent animals which survived, S. pyogenes 200 (Streptococcus pyogenes): 90%; % Growth Over Control [4]: 39%; Weight Gain Index [4]: 139 |
| Cc1c(C(=O)OCCO)[n+]([O-])c2ccccc2[n+]1[O-] [H (CH2)2 OH, 3-Methyl-2-quinoxalinecarboxylic acid, 2-hydroxyethyl ester, 1,4-dioxide] |  |  |  |  | percent animals which survived, E. coli 25 (Escherechia coli [1]): 80%; percent animals which survived, E. coli 100 (Escherechia coli [1]): 100%; percent animals which survived, S. pyogenes 50 (Streptococcus pyogenes): 60%; percent animals which survived, S. pyogenes 200 (Streptococcus pyogenes): 100% |
| CCN(CC)CCCOC(=O)c1c(C)[n+]([O-])c2ccccc2[n+]1[O-].Cl [H (CH2)3 N(C2 H5)2.HCl, 3-Methyl-2-quinoxalinecarboxylic acid, 3-(diethylamino)propyl ester, 1,4-dioxide hydrochloride] |  |  | 12.5 | 200 |  |
| Cc1c(C(=O)OCCCN(C)C)[n+]([O-])c2ccccc2[n+]1[O-].Cl [H (CH2)3 N(CH3)2.HCl, 3-Methyl-2-quinoxalinecarboxylic acid, 3-(dimethylamino)propyl ester, 1,4-dioxide hydrochloride] |  |  |  |  | percent animals which survived, E. coli 25 (Escherechia coli [1]): 40%; percent animals which survived, E. coli 100 (Escherechia coli [1]): 80%; percent animals which survived, S. pyogenes 50 (Streptococcus pyogenes): 20%; percent animals which survived, S. pyogenes 200 (Streptococcus pyogenes): 100% |
| CCN(CC)CC(C)OC(=O)c1c(C)[n+]([O-])c2ccccc2[n+]1[O-] (centres unmarked) [H CH(CH3)CH2 N(C2 H5)2.HCl] |  |  |  |  | percent animals which survived, E. coli 25 (Escherechia coli [1]): 0%; percent animals which survived, E. coli 100 (Escherechia coli [1]): 60%; percent animals which survived, S. pyogenes 50 (Streptococcus pyogenes): 20%; percent animals which survived, S. pyogenes 200 (Streptococcus pyogenes): 80% |
| Cc1c(C(=O)OC(C)CN(C)C)[n+]([O-])c2ccccc2[n+]1[O-].Cl (centres unmarked) [H CH(CH3)CH2 N(CH3)2.HCl, 3-Methyl-2-quinoxalinecarboxylic acid, 1-methyl-2-(dimethyl-amino)ethyl ester, 1,4-dioxide hydrochloride] |  |  | 100 | 200 |  |
| CC(=O)OCCOC(=O)c1c(C)[n+]([O-])c2ccccc2[n+]1[O-] [drawing 80] |  |  | 50 (≈ 163 µM) | 12.5 (≈ 40.8 µM) |  |
| CCNC(=O)OCCOC(=O)c1c(C)[n+]([O-])c2ccccc2[n+]1[O-] [drawing 82] |  |  | > 200 | 25 (≈ 74.6 µM) |  |
| Cc1c(C(=O)OCCOC(=O)CCC(=O)O)[n+]([O-])c2ccccc2[n+]1[O-] [drawing 83] |  |  | > 200 | 200 (≈ 549 µM) |  |
| CC(=O)OCCOC(=O)c1c(C)[n+]([O-])c2ccccc2[n+]1[O-] [drawing 85] |  |  |  |  | percent animals which survived, E. coli 25 (Escherechia coli [1]): 80%; percent animals which survived, E. coli 100 (Escherechia coli [1]): 100%; percent animals which survived, S. pyogenes 50 (Streptococcus pyogenes): 80%; percent animals which survived, S. pyogenes 200 (Streptococcus pyogenes): 80% |
| CCNC(=O)OCCOC(=O)c1c(C)[n+]([O-])c2ccccc2[n+]1[O-] [drawing 89] | 30 | 40 |  |  |  |
| Cc1c(C(=O)OCCOC(=O)CCC(=O)O)[n+]([O-])c2ccccc2[n+]1[O-] [drawing 100] | 100 | 80 |  |  |  |
| CC(=O)OCCOC(=O)c1c(C)[n+]([O-])c2ccccc2[n+]1[O-] [drawing 103] |  |  |  |  | % Growth Over Control [4]: 53%; Weight Gain Index [4]: 153 |
